Measurements as given in patent US20260193293A1, “PEPTIDES CAPABLE OF INHIBITING PROTEIN-PROTEIN INTERACTIONS AT GABAB1A SUBUNIT AND USES THEREOF” (UNIVERSITY OF COPENHAGEN, priority 2022, published 2026).
Read-outs that look alike come from different tables or passages of the source. Residues, ends and D or L forms follow the SMILES beside them.

Molecular target: Sushi domains (SD1/2) protein
Assay: Fluorescence polarization (FP) competition assay with AJAP-1probe, calculated Ki
Assay type: binding
Method in brief: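 Competition against 25 nM TAMRA-labelled peptide probe binding SD1/2, in PBS pH 7.4 with 1% BSA at rt, read at 530/580 nm. IC50 from sigmoidal dose-response fits, at least triplicate; Ki calculated from IC50 using probe Kd from saturation binding.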

[1] = purified peptides, read-out: Ki
[2] = CPP tagged peptides overview, SD1/2 binding affinity, mean ± SEM, n ≥ 3, read-out: Ki
[3] = Table 14, CPPs tagged peptides, read-out: Ki (nM) mean ± SEM

Row | SMILES | Ki [1] [nM] | Ki (Table 5, elongation and truncation scan of AJAP-1 binding epitope, read-out: Ki (nM) mean ± SEM) [nM] | Ki [2] [nM] | Ki [3] [nM]
1 | CC[C@H](C)[C@H](NC(=O)[C@H](C)NC(=O)[C@H](Cc1c[nH]c2ccccc12)NC(=O)[C@@H]1CCCN1C(C)=O)C(=O)N[C@H](C(=O)N[C@@H](Cc1c[nH]c2ccccc12)C(=O)NCC(=O)N1CCC[C@H]1C(=O)N[C@H](C(=O)N[C@H](C(=O)N[C@@H](CO)C(=O)N[C@@H](CCCNC(=N)N)C(=O)N[C@@H](CCC(=O)O)C(=O)N[C@@H](CC(=O)O)C(=O)NCC(N)=O)C(C)C)[C@@H](C)O)C(C)C [Peptide 14] (Ac-PWAIVWGPTVSREDG-NH2) | 465 | – | – | –
2 | CC[C@H](C)[C@H](NC(=O)[C@H](Cc1ccccc1)NC(=O)[C@H](CCC(=O)O)NC(=O)[C@@H](NC(=O)[C@H](CCC(=O)O)NC(=O)[C@@H](NC(C)=O)[C@@H](C)O)[C@@H](C)O)C(=O)N[C@@H](C)C(=O)N[C@@H](Cc1c[nH]c2ccccc12)C(=O)NCC(=O)N1CCC[C@H]1C(=O)N[C@H](C(=O)NCC(=O)N[C@@H](CC(=O)O)C(=O)N[C@@H](CCC(=O)O)C(=O)N[C@@H](CC(=O)O)C(N)=O)[C@@H](C)O [Peptide 15, Ac-TETEFIAWGPTGDED-NH2] (Ac-TETEFIAWGPTGDED-NH2) | 23 | 26 ± 0.3 | – | –
3 | CC[C@H](C)[C@H](NC(=O)[C@H](Cc1c[nH]c2ccccc12)NC(=O)[C@H](CC(=O)O)NC(=O)[C@H](CC(=O)O)NC(=O)[C@H](CC(=O)O)NC(=O)[C@H](CCC(=O)O)NC(C)=O)C(=O)N[C@@H](CC(=O)O)C(=O)N[C@@H](Cc1c[nH]c2ccccc12)C(=O)N[C@@H](Cc1ccc(O)cc1)C(=O)N[C@@H](CC(=O)O)C(=O)N[C@@H](CO)C(=O)N[C@@H](CC(=O)O)C(=O)N[C@@H](CC(=O)O)C(=O)N[C@@H](CC(=O)O)C(=O)NCC(=O)NCC(=O)NCC(=O)NCC(=O)N[C@@H](CO)C(=O)N[C@@H](CCCNC(=N)N)C(=O)N[C@@H](CCCNC(=N)N)C(=O)N[C@@H](CCCNC(=N)N)C(=O)N[C@@H](CCCNC(=N)N)C(=O)N[C@@H](CCCNC(=N)N)C(=O)N[C@@H](CCCNC(=N)N)C(=O)N[C@@H](CCCNC(=N)N)C(=O)N[C@@H](CCCNC(=N)N)C(N)=O [Peptide 16-FL-R8] (Ac-EDDDWIDWYDSDDDGGGGSRRRRRRRR-NH2) | – | – | 118 ± 3 | 118 ± 3
4 | CC[C@H](C)[C@H](NC(=O)[C@H](Cc1c[nH]c2ccccc12)NC(=O)[C@H](CC(=O)O)NC(=O)[C@H](CC(=O)O)NC(=O)[C@H](CC(=O)O)NC(=O)[C@H](CCC(=O)O)NC(C)=O)C(=O)N[C@@H](CC(=O)O)C(=O)N[C@@H](Cc1c[nH]c2ccccc12)C(=O)N[C@@H](Cc1ccc(O)cc1)C(=O)N[C@@H](CC(=O)O)C(=O)N[C@@H](CO)C(=O)N[C@@H](CC(=O)O)C(=O)N[C@@H](CC(=O)O)C(=O)N[C@@H](CC(=O)O)C(=O)N[C@@H](CCCNC(=N)N)C(=O)N[C@@H](CCCNC(=N)N)C(=O)N[C@@H](CCCNC(=N)N)C(=O)N[C@@H](CCCNC(=N)N)C(=O)N[C@@H](CCCNC(=N)N)C(=O)N[C@@H](CCCNC(=N)N)C(=O)N[C@@H](CCCNC(=N)N)C(=O)N[C@@H](CCCNC(=N)N)C(N)=O [Peptide 16-R8] (Ac-EDDDWIDWYDSDDDRRRRRRRR-NH2) | – | – | 65 ± 1 | 65.3 ± 1
5 | CC[C@H](C)[C@H](NC(=O)[C@H](Cc1c[nH]c2ccccc12)NC(=O)[C@H](CC(=O)O)NC(=O)[C@H](CC(=O)O)NC(=O)[C@H](CC(=O)O)NC(=O)[C@H](CCC(=O)O)NC(C)=O)C(=O)N[C@@H](CC(=O)O)C(=O)N[C@@H](Cc1c[nH]c2ccccc12)C(=O)N[C@@H](Cc1ccc(O)cc1)C(=O)N[C@@H](CC(=O)O)C(=O)N[C@@H](CO)C(=O)N[C@@H](CC(=O)O)C(=O)N[C@@H](CC(=O)O)C(=O)N[C@@H](CC(=O)O)C(=O)N[C@@H](CCC(=O)O)C(=O)N[C@@H](C)C(=O)N[C@@H](C)C(=O)N[C@@H](C)C(=O)N[C@@H](CCCCN)C(=O)N[C@@H](CCCNC(=N)N)C(=O)N[C@@H](CCCNC(=N)N)C(=O)N[C@@H](CCCNC(=N)N)C(=O)N[C@@H](CCCNC(=N)N)C(=O)N[C@@H](CCCNC(=N)N)C(=O)N[C@@H](CCCNC(=N)N)C(=O)N[C@@H](CCCNC(=N)N)C(=O)N[C@@H](CCCNC(=N)N)C(N)=O [Peptide 16-RL-R8] (Ac-EDDDWIDWYDSDDDEAAAKRRRRRRRR-NH2) | – | – | 100 ± 4 | 99.5 ± 4
